Like-named read-outs stand apart in the source and are kept apart here.
Assay: Beagle pharmacokinetic study (ig/sc/iv, plasma LC/MS/MS)
Type: in vivo, beagles
Conditions: for AUC(0-t) / half-life / Cmax: dog, plasma; for AUC(0-t): read-out: Area under curve AUC0-72; for half-life: read-out: Half life T½ (converted); for Cmax: read-out: Plasma concentration Cmax
Procedure: Taking beagles as test animals, and the drug concentrations in dog plasma at various times after intragastric administration (ig)/subcutaneous injection (sc)/intravenous injection (iv) administration of the compound of Example 1-1 and Positive Control Example 1 were measured by using LC/MS/MS method. The pharmacokinetic performance in beagles of the compounds of the present disclosure was studied and the pharmacokinetic profile thereof was evaluated.
18 non-naïve beagles (999M-004, medicilon) with 7-12 kg, every 3 of which were in one group.
The intragastric administration group: a certain amount of the compounds was weighed, ethanol with a volume of 5% of the final volume, 20% PG, 45% PEG300 and 30% deionized water were added (the pH was adjusted to be about 2 with 0.01 N HCl), and the reaction mixture was subjected to ultrasonic stirring for uniform mixing to give an administration solution at a concentration of 0.8 mg/mL.
The subcutaneous injection administration group: a certain amount of the compounds was weighed, 2% aqueous poloxamer 188 solution with a proper volume was added, and the reaction mixture was subjected to ultrasonic stirring for uniform mixing to give a suspension administration solution at a concentration of 200 mg/mL.
The intravenous administration group: a certain amount of the compounds was weighed, 5% volume of DMSO, 30% PG, 30% PEG400 and 35% volume of normal saline were added, and the reaction mixture was subjected to vortex ultrasonic stirring for uniform mixing to give an administration solution at a concentration of 0.5 mg/mL.
Beagles were intragastrically administered with the compounds after fasting overnight, at a dose of 4.0 mg/kg and a volume of 5.0 mL/kg.
Beagles were subcutaneously injected with the compounds after fasting overnight, at a dose of 6.0 mg/kg and a volume of 0.03 mL/kg.
Beagles were intravenously injected with the compounds after fasting overnight, at a dose of 1.0 mg/kg and a volume of 2 mL/kg.
Beagles were intragastrically administered with the compound of Example 1-1/Positive Control Example 1, and 1 mL of blood was collected from the orbit before administration and at 0.25 h, 0.5 h, 1.0 h, 2.0 h, 4.0 h, 6.0 h, 8.0 h, 12.0 h, 24 h, 32 h, 48 h, 56 h and 72 h after administration, respectively, and placed in EDTA-K2 anticoagulant blood collection tubes, plasma was centrifuged (centrifugal force: 2200 g, centrifugation time: 10 min, 2-8° C.), and stored at −80° C., and food intake was resumed 3 h after administration.
The compound of Example 1-1/Positive Control Example 1 was subcutaneously injected to beagles, and 1 mL of blood was collected before administration and at 1.0 h, 3.0 h, 8.0 h, 24 h, 48 h, 72 h, 96 h, 168 h, 336 h, 432 h and 504 h after administration, respectively, and placed in EDTA-K2 anticoagulant blood collection tubes, plasma was centrifuged (centrifugal force: 2200 g, centrifugation time: 10 min, 2-8° C.), and stored at −80° C., and food intake was resumed 3 h after administration.
The content of the compound to be tested in the plasma of beagles was determined after the intragastric administration of the compounds at different concentrations: 20 μL of the plasma in beagles at each time after administration was taken, 200 μL of methanol containing internal standard (100 ng/mL) was added, the reaction mixture was subjected to vortex mixing for 1 min, and centrifuged for 7 min (centrifugal force: 18000 g), and 1 μL of the supernatant was taken from the plasma sample for LC/MS/MS analysis. […]

[1] = po, intragastric administration, 4 mg/kg
[2] = sc, subcutaneous injection, 6 mg/kg

Question: For CC(C)(C#Cc1nc([C@H](Cc2cc(F)cc(F)c2)NC(=O)Cn2nc(C(F)(F)F)c3c2C(F)(F)[C@@H]2C[C@H]32)c(-c2ccc(Cl)c3c(NS(C)(=O)=O)nn(CC(F)(F)F)c23)c2c1CCC2)S(C)(=O)=O (atropisomer, axis not shown; (aR)) [Example 1-1, N—((S)-1-((R)-4-(4-chloro-3-(methanesulfonamide)-1-(2,2,2-trifluoroethyl)-1H-indazol-7-yl)-1-(3-methyl-3-(methylsulfonyl)but-1-yn-1-yl)-6,7-dihydro-5H-cyclopenta[c]pyridin-3-yl)-2-(3,5-difluorophenyl)ethyl)-2-((3bS,4aR)-5,5-difluoro-3-(trifluoromethyl)-3b,4,4a,5-tetrahydro-1H-cyclopropa[3,4]cyclopenta[1,2-c]pyrazol-1-yl)acetamide], which AUC(0-t) (intravenous injection, 1 mg/kg) is on record?
Answer: 16500 ng·h/mL

Question: What about the half-life (intravenous injection, 1 mg/kg) of the same compound?
Answer: 41.8 h

Question: And the Cmax (intravenous injection, 1 mg/kg)?
Answer: 1320 ng/mL

Question: What about the AUC(0-t) [1] of the same compound?
Answer: 8230 ng·h/mL

Question: What about the half-life [1] of the same compound?
Answer: 44.3 h

Question: What about the Cmax [1] of the same compound?
Answer: 251 ng/mL

Question: What about the AUC(0-t) [2] of the same compound?
Answer: 34800 ng·h/mL

Question: What about the Cmax [2] of the same compound?
Answer: 122 ng/mL

Question: And the “Clearance CLz/F” value (intravenous injection, 1 mg/kg)?
Answer: 0.7 mL/min/kg
